Assay results: US12577281B2, “Mitochondrial-derived peptides and analogs thereof for use as a therapy for age-related diseases including cancer” (University of Southern California, priority 2020, dated 2026)
Where a SMILES comes first, the peptide text is derived from it.

Assay: Safety of NOSH in mice
Assay type: in vivo
Protocol: FIG. 1. NOSH (ND-One short open reading frames (sORF) in Humans) is safe in mice. NOSH has a sequence of […] (SEQ ID NO:215).
NOSH was safe in mice. Further, NOSH increased autophagy. The level of autophagy-related protein microtubule-associated protein 1 light chain 3 (LC3) was increased in PC3 cells treated with 5 μM NOSH for 6 h. FIG. 2.

With `CC[C@H](C)[C@H](NC(=O)[C@H](CC(C)C)NC(=O)[C@@H](NC(=O)[C@H](CC(C)C)NC(=O)[C@H](CCSC)NC(=O)[C@H](CC(C)C)NC(=O)[C@H](CO)NC(=O)[C@H](CC(C)C)NC(=O)[C@H](CO)NC(=O)[C@H](CCCNC(=N)N)NC(=O)CNC(=O)[C@H](CO)NC(=O)[C@H](CCCNC(=N)N)NC(=O)[C@H](CCCNC(=N)N)NC(=O)[C@@H](NC(=O)[C@H](C)NC(=O)[C@H](CC(C)C)NC(=O)[C@H](CC(C)C)NC(=O)[C@H](CC(C)C)NC(=O)CNC(=O)[C@H](Cc1ccccc1)NC(=O)[C@H](CC(C)C)NC(=O)[C@H](CCCNC(=N)N)NC(=O)[C@@H](N)CCSC)C(C)C)[C@@H](C)O)C(=O)N[C@@H](CCCNC(=N)N)C(=O)NCC(=O)N[C@@H](CC(C)C)C(=O)N[C@@H](CO)C(=O)N[C@@H](CCCCN)C(=O)N[C@@H](CCCNC(=N)N)C(=O)N[C@@H](CC(C)C)C(=O)NCC(=O)O` [NOSH] (H-MRLFGLLLAVRRSGRSLSLMLTLIRGLSKRLG-OH) the safety in mice was “safe”.
